EC50 and MIC data for 4 compounds are collected here from paper PMC12163684, “Gunacins: Novel Benzo[g]chromene Derivatives from the Fungus Exobasidium sp. and Their Potent Anti-Leishmania and Trypanosoma Activities” (ACS Omega, 2025).

Common to all, as to format: cell-based
Experiment [1] relates to Madin–Darby canine kidney (MDCK) epithelial cell line. Briefly: Cytotoxicity on proliferating cells, crystal violet assay, OD590. The conditions noted are these: Canis lupus familiaris, 24 h treatment, read-out: EC50 ± SEM MDCK. As to the method: (§1) MDCK and RAT cells were cultured in DMEM with 10% FBS at 37 °C in a 5% CO2 atmosphere as described previously. , To assess the toxic effects of the compounds on proliferating cells, cells were seeded in 24-well plates for 24 h to reach ∼15% confluence, and cells were treated in triplicate with increasing concentrations of the isolated compounds for an additional 24 h. Cells were washed with 1× PBS, fixed in staining solution (0.5% crystal violet, 20% methanol) for 10 min, and gently washed five times in 1× PBS. The fixed cells were then dissolved in lysis solution (0.1 M sodium citrate, 25% ethanol, pH 4.2) for 30 min, transferred to a 96-well plate in H2O, and the OD^590 was determined. EC50 values were determined using GraphPad Prism software and the dose–response fit equation. The EC50 values were determined from two independent experiments. Additionally, the impact of the isolated substances on the morphology of the HeLa adenocarcinoma cell line and primary human skin fibroblasts was examined by using fluorescence microscopy. Cells were cultured in DME medium supplemented with 10% FCS (Gibco, Invitrogen, Carlsbad, USA) on glass coverslips in 24-well plates until reaching approximately 50% confluence. The cells were treated with varying concentrations of isolated compounds dissolved in DMSO. Wells containing DMEM with DMSO served as the negative control. After 24 h cultivation, the cells were incubated with MitoTracker Red CMXRos (10 min) to label mitochondria, then fixed with 3.7% paraformaldehyde in PBS (20 min, room temperature), permeabilized with 0.1% Triton X-100 in PBS, and blocked with 1% BSA in PBS. The cells were then stained with Phalloidin-Alexa Fluor488 conjugate. All fluorescence reagents were purchased from Molecular Probes, Invitrogen, Carlsbad, CA, USA. Nuclei were stained with Fluoroshield DAPI (Sigma-Aldrich), and cells were examined using an IX71 microscope equipped with a DP70 camera and a 40× objective. Assays were performed at concentrations of 5, 25, 50, 100, and 125 μM.

The test system of experiment [2] is RAT2 fibroblast cell line. The experiment is described as above. The conditions noted are these: 24 h treatment, read-out: EC50 ± SEM RAT2. The method, then: as §1
Experiment [3] concerns L. mexicana (MNYC/BZ/1962/M379) promastigote. Put plainly: Anti-Leishmania activity, AB assay, axenic promastigotes. The method, then: (§2) Promastigote stages of L. mexicana (MNYC/BZ/1962/M379), a generous gift from Vyacheslav Yurchenko, were cultured in M199 medium pH 7.4 supplemented with 2 μg/mL biopterin, 2 μg/mL hemin, 25 mM HEPES, 100 U/mL penicillin/streptomycin, and 10% heat-inactivated FBS (BioSera) pH 7.4 at 25 °C. The amastigotes were differentiated in vitro from late log/stationary promastigote cultures and cultivated in Schneider’s Drosophila Medium (SIM) at pH 5.5, supplemented with 1.5 μg/mL hemin, 100 U/mL penicillin/streptomycin, and 20% heat-inactivated FBS (BioSera) at pH 5.5, at 32 °C, and 5% CO2. Following a three-day period, the promastigotes underwent a transformation into amastigotes, which were then maintained in SIM.
(§3) To estimate the EC50, the AB assay, as previously described, was employed. The results are expressed as EC50, representing the dose of the compound required to inhibit cellular growth by 50%. Each EC50 value is the mean ± the standard error of the mean derived from at least three separate experiments, each performed in duplicate.

Experiment [4] relates to Jurkat T-lymphocyte cell line. Briefly: Cytotoxicity, Hoechst 33258 staining and flow cytometry (FACS LSRII). The conditions noted are these: 24 h incubation, flow cytometry, read-out: EC50 ± SEM Jurkat. As to the method:
To evaluate the cytotoxicity of the isolated compounds, the immortalized T-lymphocyte cell line Jurkat was cultured in 96-well polypropylene U-bottom plates at a density of approximately 2 × 10^5 cells per well in RPMI1640 medium, with a total volume of 300 μL per well. Cells cultured in RPMI1640 medium alone and in RPMI1640 medium with DMSO were used as negative controls. After 24 h of incubation with the isolated compounds, dissolved in 10 mM DMSO, the cells were washed with PBS solution containing 0.02% gelatin and 0.01% sodium azide. Following this, the cells were stained with the fluorescent dye Hoechst 33258 and analyzed by flow cytometry using a FACS LSRII instrument (BD Biosciences, San Jose, USA) and FlowJo 10 software (Tree Star, Ashland, USA). Initial assays were conducted at concentrations of 5, 25, 50, 100, and 125 μM, with subsequent measurements at concentrations adjusted based on the results of the initial assays, each performed in triplicate. EC50 values were determined using Quest Graph software and the dose–response four parameters regression model. The EC50 values were determined from three independent experiments.
On the technique in general: Flow cytometry measures light scatter and fluorescence of single cells or particles in a stream.

Experiment [5] deals with L. mexicana (MNYC/BZ/1962/M379) amastigote. Put plainly: Anti-Leishmania activity, AB assay, axenic amastigotes. The method, then:
as §2, §3

The test system of another experiment is K. rhizophila ATCC 9341. Briefly: Minimum inhibitory concentration (MIC) testing, serial binary dilution in 96-well plates. The conditions noted are these: Kocuria rhizophila, ATCC9341; 24 h in the dark; lowest concentration with no live microorganisms. The method, then:
(§4) Minimum inhibitory concentration (MIC) testing of the extracts was performed using 96-well polypropylene plates against four different microorganisms: the Gram-positive bacterium K. rhizophila ATCC 9341, the Gram-negative bacterium E. coli ATCC 3988, and the yeasts C. albicans CCM 8215 and C. neoformans CCF 1081.
(§5) A working inoculum of each microorganism was prepared as follows: for E. coli and K. rhizophila, the inoculum was grown in LB medium (LB Broth, 25 g/L, incubated at 36 °C); for C. albicans and C. neoformans, YM6.3 medium (maltose extract 10 g, glucose 4 g, yeast extract 4 g per 1 L distilled water, incubated at 24 °C) with a cell concentration of approximately 5 × 10^5 cells/mL for all microorganisms was used.
(§6) Chloramphenicol served as a positive control for bacteria, while cycloheximide was used as a positive control for fungi. The gradient of the test substances was established by serial binary dilution across the wells. The MIC was determined by identifying the lowest concentration at which no live microorganisms were present. Cultivation was performed in the dark for 24 h.

The next experiment relates to C. albicans CCM 8215. Described as above. The conditions noted are these: Candida albicans, CCM8215; 24 h in the dark; n.d. = activity not detected; highest tested concentration 66.7 μM. As to the method:
as §4, §5, §6

Another experiment concerns E. coli ATCC 3988. The description is as above. The conditions noted are these: Escherichia coli, ATCC3988; 24 h in the dark; lowest concentration with no live microorganisms. As to the method: as §4, §5, §6
A further experiment concerns C. neoformans CCF 1081. The description is as above. The conditions noted are these: Cryptococcus neoformans, CCF1081; 24 h in the dark; n.d. = activity not detected; highest tested concentration 66.7 μM. As to the method:
as §4, §5, §6

Each structure is given as a SMILES string. In brackets after ≈: the same amount, converted by molar mass. Where two headings read alike, the source gives them in different places. Some results are limits rather than exact numbers.

As to `COc1cc(O)c2c(c1)C(=O)C1=C(C2=O)[C@H](O)[C@@H](O)[C@@H](C)O1` (relative stereo) [Compound 3, (2R,3R,4S)-3,4,6-trihydroxy-8-methoxy-2-methyl-3,4-dihydro-2H-benzo[g]chromene-5,10-dione], the EC50 (commonly the midpoint of the concentration-response curve) is 4.7 ± 0.6 µM in [1]; 5.1 ± 0.7 µM in [2] (Rat2, 24 h); 8.6 µM in [3]; 16.5 ± 1.3 µM in experiment [4] (Homo sapiens, Jurkat, 24 h); 5.6 µM in [5]. For the same compound, the MIC (commonly the lowest concentration that inhibits growth of the organism) against K. rhizophila ATCC 9341 is 8.3 µM (≈ 2.54 µg/mL); in the experiment with C. albicans CCM 8215 it was > 66.7 µM; with E. coli ATCC 3988, 2.1 µM (≈ 0.643 µg/mL); with C. neoformans CCF 1081, > 66.7 µM.

Regarding `COc1cc(O)c2c(c1)C(=O)C1=C(C2=O)[C@@H](OC(C)=O)[C@@H](O)[C@@H](C)O1` [Compound 1, (2R,3S,4R)-3,6-dihydroxy-8-methoxy-2-methyl-5,10-dioxo-3,4,5,10-tetrahydro-2H-benzo[g]chromen-4-yl acetate], the 50% effective concentration (EC50) in experiment [1] is 0.1 µM; in [2], 0.06 µM; in experiment [2] (Rat2, 24 h) it was 0.1 µM; in experiment [3] it was 0.22 µM; in [4], 1.7 ± 0.1 µM; in [4] (Homo sapiens, Jurkat, 24 h) it was ~1.5 µM. For the same compound, in [5], it took 0.01 µM to reach a half-maximal effect (EC50). For the same compound, the minimum inhibitory concentration (MIC) with K. rhizophila ATCC 9341 worked out at 1 µM; against C. albicans CCM 8215 it was 33.3 µM; against E. coli ATCC 3988 it was 1 µM; in the experiment on C. neoformans CCF 1081, 33.3 µM.

For `COc1cc(O)c2c(c1)C(=O)C1=C(C2=O)[C@@H](O)[C@@H](OC(C)=O)[C@@H](C)O1` [Compound 5, (2R,3R,4R)-4,6-dihydroxy-8-methoxy-2-methyl-5,10-dioxo-3,4,5,10-tetrahydro-2H-benzo[g]chromen-3-yl acetate], the EC50 in experiment [1] is 0.1 µM; in [2] (Rat2, 24 h), 0.03 µM; in experiment [3], 0.24 µM; in experiment [4], 1.6 ± 0.1 µM; in experiment [4] (Homo sapiens, Jurkat, 24 h) it was ~1.5 µM; in [5], 0.01 µM. The MIC was 2.1 µM against K. rhizophila ATCC 9341, 66.7 µM with C. albicans CCM 8215, 1 µM with E. coli ATCC 3988 and 33.3 µM in the experiment with C. neoformans CCF 1081.

On to `COc1cc(O)c2c(c1)C(=O)C1=C(C[C@@H](OC(C)=O)[C@@H](C)O1)C2=O` [Compound 7, (2R,3R)-6-hydroxy-8-methoxy-2-methyl-5,10-dioxo-3,4,5,10-tetrahydro-2H-benzo[g]chromen-3-yl acetate], for which the EC50 in experiment [1] is 5.6 ± 1.1 µM; in [2] (Rat2, 24 h), 6 ± 0.3 µM; in [3] it was 3.6 µM; in [4] (Homo sapiens, Jurkat, 24 h) it was 93.2 ± 5.9 µM; in experiment [5], 2.5 µM. Further, the MIC was determined as 4.2 µM in the experiment on K. rhizophila ATCC 9341, 33.3 µM in the experiment with C. albicans CCM 8215, 4.2 µM against E. coli ATCC 3988 and 33.3 µM against C. neoformans CCF 1081.
